Measurements reported in patent publication EP0452507A1, “MEDICINE COMPRISING TOCOPHERYL GLYCOSIDE AS ACTIVE INGREDIENT” (NIPPON HYPOX LABORATORIES INCORPORATED, priority 1989, dated 1991).

Experiments:
[1] = test system: antigen-adjuvant-induced inflammation; experiment: antigen-adjuvant-induced inflammation, right hind paw swelling by volumetry; format: in vivo, rats; conditions: 10 mg/kg intraperitoneally
Procedure: (§1) At first, five groups each consisting of five SD male rats weighing 180 to 220 g (total 25 rats) were prepared, and each rat was measured for a size of the subplantar region of the right hind paw. As an antigen to cause an antigen-adjuvant-induced inflammation, 0.2 mg/rat of egg-white albumin was used. Further, as an immune aid (adjuvant), a mixture consisting of 4 mg/rat of aluminum hydroxide and 0.1 ml/rat of pertussis vaccine was prepared.
One out of the five groups was used as Control group. A physiological saline solution of 10 % Nikkol (trade name, dissolving aid, supplied by Nikko Chemical Co., Ltd.) was administered intraperitoneally to each rat, and 0.5 hour after the administration of the physiological saline solution of 10 % Nikkol, the above antigen and adjuvant were administered intracutaneously into the subplantar region of the right hind paw. Then, 0.5, 1, 2, 4, 6, 12 and 24 hours after the administration of the antigen and adjuvant, the swelling on the subplantar region of the right hind paw of each rat was measured by volumetry. And, the average of swelling ratios of the group in every measurement was determined on the basis of the measurement values of the sizes of subplantar regions of the right hind paws of the rats obtained before the administration of the physiological saline solution of 10 % Nikkol.
One of the remaining four groups was used as Example group @. A physiological saline solution of 10 % Nikkol containing VIE-MAN was administered intraperitoneally into each rat of this group in such a dose that the amount of VIE-MAN was 10 mg/kg, and 0.5 hours after the administration of the physiological saline solution of 10 % Nikkol containing VIE-MAN, the above antigen and adjuvant were administered intracutaneously into the subplantar region of the right hind paw. Thereafter, the swelling on the subplantar region of the right hind paw of each rat was measured in the same manner as that for Control group, and the average of swelling ratios of the group in every measurement was determined.
(§2) The same procedure as that for Example group ⑧ was carried out except that a physiological saline solution of 10 % Nikkol containing hydrocortisone which was an anti-inflammatory preparation (immunosuppressive preparation) in place of the physiological saline solution of 10 % Nikkol containing VIE-MAN was administered intraperitoneally in such a dose that the amount of the hydrocortisone was 10 mg/kg.
as §2, with “diphenhydramine” for “hydrocortisone”, “antihistamine” for “anti-inflammatory”, “preparation” for “preparation (immunosuppressive preparation)”
as §2, with “containing indomethacin” for “containing hydrocortisone”, “was a nonsteroidal” for “was an”, “preparation (antipyretic analgesic antiphlogistic” for “preparation (immunosuppressive”, “the indomethacin” for “the hydrocortisone”
as §1, with “first, four” for “first, five”, “five male” for “five”, “SD” for “SD male”, “(total 20” for “(total 25”, “an antigen- adjuvant-induced” for “an antigen-adjuvant-induced”, “was prepared.” for “was used.”
One out of the four groups was used an Control group, and the procedure for Control group in Example 4 was repeated to determine the average of the swelling ratios as a group unit.

[2] = test system: stomach (mucosal ulcer in the glandular portion); format: in vivo, rats; conditions: rat, in vivo
Procedure: 15 male SD rats weighing 180 to 220 g were used. These rats were fasted for 24 hours, and separated to three groups each consisting of 5 rats.
Then, one group was used as Control group. A physiological saline solution of 10 % Nikkol was administered intraperitoneally, and the rats were sacrificed with ether 16 hours after the administration. The stomach of each rat was removed, and after 10 ml of physiological saline was injected into the stomachs, the stomachs were fixed by immersing them in a 1 % formalin for 10 minutes. Each stomach was dissected along the greater curvatura, and the length (mm) of mucosal ulcer which occurred in the glandular portion was measured under an anatomical microscope (x 10). The average of the ulcer lengths of the five rats was taken as an ulcer index.
One out of the remaining two groups was used as Example group @. The procedure for Control group was repeated except that a physiological saline solution of 10 % Nikkol containing VIE-MAN in place of the physiological saline solution of 10 % Nikkol was administered intraperitoneally in such a dose that the amount of VIE-MAN was 300 mg/kg, and the ulcer index was determined.
The remaining one group was used as Comparative Example group ⓘ. The procedure for Example group 17 was repeated except that a physiological saline solution of 10 % Nikkol containing indomethacin, which was a nonsteroidal anti-inflammatory preparation (antipyretic analgesic antiphlogistic preparation), in place of the physiological saline solution of 10 % Nikkol was administered intraperitoneally in such a dose that the amount of the indomethacin was 20 mg/kg, and the ulcer index was determined.

[3] = test system: carrageenin-induced inflammation; experiment: carrageenin-induced inflammation, right hind paw swelling by volumetry; format: in vivo, rats; conditions: Example 7, Fig. 6
Procedure: Six groups each consisting of five male SD rats weighing 180 to 220 g were used (total 30 rats), and each rat was measured for a size of the subplantar region1 of the right hind paw.
In order to induce carrageenin-induced inflammation, 0.1 ml/rat of a physiological saline solution of 1 % X-carrageenin was prepared.
One out of the six groups was used as Control group. A physiological saline solution of 10 % Nikkol was administered intraperitoneally to each rat of this group, and 0.5 hours after the administration of the physiological saline solution of 10 % Nikkol, 0.1 ml of the physiological saline solution of 1 % X-carrageenin was administered intracutaneously into the subplantar region of the right hind paw of each rat. Then, 0.5, 1, 2, 3 and 4 hours after the administration of […] of the physiological saline solution of 1 % X-carrageenin, the swelling on the subplantar region of the right hind paw of each rat was measured by volumetry, arid the average of swelling ratios of the group in every measurement was determined on the basis of the measurement values of the sizes of subplantar regions of the right hind paws of the rats obtained before the administration of the physiological saline solution of 10 % Nikkol solution.
The procedure for Control group was repeated except that a physiological saline solution of 10 % Nikkol containing VIE-MAN in place of the physiological saline solution of 10 % Nikkol was administered intraperitoneally in such a dose that the amount of VIE-MAN was 10 mg/kg.
The procedure for Control group was repeated except that a physiological saline solution of 10 % Nikkol containing VIE-MAN in place of the physiological saline solution of 10 % Nikkol was administered intraperitoneally in such a dose that the amount of VIE-MAN was 30 mg/kg.
The procedure for Control group was repeated except that a physiological saline solution of 10 % Nikkol containing VIE-MAN in place of the physiological saline solution of 10 % Nikkol was administered intraperitoneally in such a dose that the amount of VIE-MAN was 100 mg/kg.
(§3) The procedure for Example groups ⑭, ⑮ and ⑯ was repeated except that a physiological saline solution of 10 % Nikkol containing cortisone acetate which was a steroidal anti-inflammatory preparation (immunosuppressive preparation) in place of the physiological saline solution of 10 % Nikkol containing VIE-MAN was administered intraperitoneally in such a dose that the amount of the cortisone acetate was 10 mg/kg.
as §3, with “indomethacin” for “cortisone acetate”, “nonsteroidal” for “steroidal”, “(antipyretic analgesic antiphlogistic” for “(immunosuppressive”

IgE antibody = format: in vivo, rats
Procedure: At first, 20 male SD rats weighing 180 to 220 g were prepared. Egg-white albumin in an amount of 1 mg per rat was prepared as an antigen to induce the IgE antibody-antigen mediating immune response. Further, a mixture of 20 mg/rat of aluminum hydroxide with 0.6 mi/rat of pertussis vaccine was prepared as an immune aid (adjuvant).
Then, the above antigen and the above adjuvant were equally administered intracutaneously into the four footpads of each rat for sensitization.
24 Hours after the sensitization, the footpad swelling of each rat was measured by volumetry to determine the swelling ratio (unit: %). Then, the rats were separated into four groups each consisting of 5 rats such that the average swelling ratio of one group was nearly equal to that of another group.
Thereafter, one of the four groups was used as Control group, and a physiological saline solution of 10 % Nikkol (trade name, dissolving aid, supplied by Nikko Chemical Co., Ltd.) was administered intraperitoneally to each rat for the 11 consecutive days after the group separation, and on 15th day after the group separation, the serum of each rat was collected, and measured for an IgE antibody amount by means of a 48-hour homologous PCA reaction (passive cutaneous anaphylaxis reaction) as an index. In addition, the IgE antibody amount is shown in terms of a maximum dilution (unit: %) of serum showing positive reaction (blue spot having a diameter of not less than 5 mm).
Two groups of the remaining three groups were used as Example groups ⑥ and 0. A physiological saline solution of 10 % Nikkol containing VIE-MAN was administered intraperitoneally to each rat of Example group ⑥ in such a dose that the amount of VIE-MAN was 30 mg/kg/day for 11 days after the group separation. And, a physiological saline solution of 10 % Nikkol containing VIE-MAN was administered intraperitoneally to each rat of Example group 0 every other day (number of days for administration: 6 days) in such a dose that the amount of VIE-MAN was 100 mg/kg/day for 11 days after the group separation. Then, on 15th day after the group separation, the serum of each rat was collected, and measured for an IgE antibody amount in the same manner as that for Control group.
One remaining group of the four groups was used as Comparative Example group @. A physiological saline solution of 10 % Nikkol containing hydrocortisone which was an adrenocortical hormone preparation was administered intraperitoneally to each rat in such a dose that the amount of the hydrocortisone was 10 mg/kg/day for the consecutive 11 days after the group separation. Then, on 15th day after the group separation, the serum of each rat was collected, and measured for an IgE antibody amount in the same manner as that for Example groups 6 and ⑦.

[4] = test system: delayed-type hypersensitivity; experiment: picryl chloride-induced delayed-type hypersensitivity, ear swelling ratio; format: in vivo, mice; conditions: Example 1, Fig. 1; VIE-MAN 10, 30, 100 mg/kg/day versus methotrexate 1 mg/kg/day, intraperitoneally
Procedure: 76 Male mice (C57BU6Ncrj) weighing 18 to 20 g were used. The abdominal portion of each mouse was shaved such that the shaved portion was about 1 cm^2. Thereafter, 20 µl of an ethanol solution of 7 % picryl chloride was applied to the shaved portions for sensitization.
Eighteen out of the 76 mice were used as Control group. A physiological saline solution containing 10 % Nikkol (Nikkol: trade name, dissolving aid, supplied by Nikko Chemical Co., Ltd.) was administered intraperitoneally to the 18 mice for the consecutive 5 days after the sensitization, and ear thickness of each of these 18 mice was measured on the eighth day after the sensitization. Thereafter, 20 µl of an olive oil solution of 1 % picryl chloride was applied to the ear of each of the mice to cause delayed-type hypersensitivity.
The above pharmaceutical solutions were administered intraperitoneally at the above-described doses for the five consecutive days after the sensitization, and ear thickness of each of these mice was measured on the eighth day after the sensitization. Thereafter, 20 µl of an olive oil solution of 1 % picryl chloride was applied to the ear of each of the mice to cause delayed-type hypersensitivity.
24 Hours after the delayed-type hypersensitivity was induced, the swelling of the ear of each of the mice of Control group and Example groups ①, ②and③ was measured with a dial thickness gauge. On the basis of the values of the ear thickness measured before the application of the olive oil solution of 1 % picryl chloride, the swelling ratio of each of Example groups ①, ② and ③ and Control group was determined.
And, the swelling ratio of the mice was determined.
At first, the abdominal portion of each of forty ICR male mice weighing 20 to 25 g was shaved such that the shaved portion was about 1 cm^2. Thereafter, 20 µl of an ethanol solution of 7 % picryl chloride was applied to the shaved portions for sensitization.

## Cc1c(C)c2c(c(C)c1OC1OC(CO)C(O)C(O)C1O)CCC(C)(CCCC(C)CCCC(C)CCCC(C)C)O2 (racemic) [VIE-GAL, dl-a-tocopheryl-,B-galactoside]
[1]; Example 5, Fig. 4, 10 mg/kg
  inhibition activity against antigen-adjuvant-induced inflammations: also superior
[1]; Example 5, Fig. 4, 0.5 hour after administration of antigen and adjuvant, versus Control group
  average of the swelling ratios: significantly lower than that of the swelling ratios of Control group
[2]
  side effect on the digestive system: nearly similar results to that of the test on VIE-MAN

## CC(=O)OCC(=O)[C@@]1(O)CC[C@H]2[C@@H]3CCC4=CC(=O)CC[C@]4(C)[C@H]3C(=O)C[C@@]21C [cortisone acetate]
[3]; VIE-MAN 10, 30, 100 mg/kg, depending upon its dose, comparators 10 mg/kg, intraperitoneally
  inhibition activity against carrageenin-induced inflammation: significant activity at and after 0.5 hour
[3]; comparators 10 mg/kg intraperitoneally
  inhibition activity against carrageenin-induced inflammation compared with VIE-MAN: lower than that of VIE-MAN

## CN(C)CCOC(c1ccccc1)c1ccccc1 [diphenhydramine, reference compound]
[1]; Example 4, Fig. 3
  inhibition activity against antigen-adjuvant-induced inflammations: no inhibition activity was found

## C[C@]12CCC(=O)C=C1CC[C@@H]1[C@@H]2[C@@H](O)C[C@@]2(C)[C@H]1CC[C@]2(O)C(=O)CO [hydrocortisone, reference compound]
IgE antibody; Example 3 / Comparative Example 2, VIE-MAN 30 or 100 mg/kg/day, hydrocortisone 10 mg/kg/day, intraperitoneally
  inhibition activity against the IgE antibody production: lower than that of VIE-MAN
IgE antibody; group average, (total 11 days) intraperitoneally, maximum dilution of serum showing positive reaction
  IgE antibody amount in serum, Average value: 473.6
[1]; Example 4, Fig. 3
  inhibition activity against antigen-adjuvant-induced inflammations: no inhibition activity was found

## CN(Cc1cnc2nc(N)nc(N)c2n1)c1ccc(C(=O)N[C@@H](CCC(=O)O)C(=O)O)cc1 [methotrexate, reference compound]
[4]
  preventive and therapeutical effect on delayed-type hypersensitivity (comparison): VIE-MAN was superior to methotrexate
